Results on 4 molecules are retold here after patent US20140178411A1, “COMPOUNDS AND METHODS FOR THE TREATMENT OF CD20 POSITIVE DISEASES” (BIO-THERA SOLUTIONS, LTD., CO., priority 2012, published 2014).

In one test the test system is tubulin. The conditions noted are these: 10 μL added to 100 μL 4 mg/ml tubulin, FIG. 1.
The subject of test [1] is human acute lymphoblastic leukemia line C.E.M. The conditions noted are these: Wolpert-DeFillippes et al. 1975; cited from earlier work.

Protocol for tubulin: The effect of 3AA-MDC and related metabolites on the tubulin polymerization in vitro was assessed by HTS-Tubulin Polymerization Assay Kit (BK004P, Cytoskeleton, Inc., USA). According to the instruction of kit, pre-warm the 96-well plate to 37° C. for 30 min prior to starting the assay. At the same time, the spectrophotometer (SpectraMax, Molecular Devices, USA) was set as follow: wavelength, 405 nm; temperature, 37° C.; Kinetic, 31 cycles of 1 reading per minute. Make cold G-PEM buffer (990 μL General Tubulin Buffer+10 μL GTP Stock) and keep it on ice. Prepare 4 mg/ml tubulin, 200 nM L-3AA-MDC (N2′-deacetyl-N2′-(6-maleimido-1-oxo-hexyl)maytansine), or related compounds cys-3AA-MDC, or lys-mcc-MDC, 100 μM Paclitaxel, 100 μM Nocodazole, and 1 μM 206-3AA-MDC (3AA-MDC-antibody conjugate). Add 10 μL G-PEM, 3AA-MDC, Paclitaxel, Nocodazole and 206-3AA-MDC or related metabolites into the wells, and then add 100 μL 4 mg/ml tubulin to each well. Immediately place the plate into the spectrophotometer and start recording using the kinetic setup described above.

As to `COc1cc2cc(c1Cl)N(C)C(=O)C[C@H](OC(=O)[C@H](C)N(C)C(=O)CCCCCN1C(=O)C=CC1=O)[C@]1(C)OC1[C@H](C)[C@@H]1C[C@@](O)(NC(=O)O1)[C@H](OC)/C=C/C=C(\C)C2` (stereo partly drawn) [L-3AA-MDC, N2′-deacetyl-N2′-(6-maleimido-1-oxo-hexyl)maytansine], the “effect on tubulin polymerization (in words)” value with tubulin (200 nM stock, compared with Nocodazole) is listed as “more significantly inhibited the tubulin polymerization”. In the case of `COc1cc2cc(c1Cl)N(C)C(=O)C[C@H](OC(=O)[C@H](C)N(C)C(C)=O)[C@]1(C)O[C@H]1[C@H](C)[C@@H]1C[C@@](O)(NC(=O)O1)[C@H](OC)/C=C/C=C(\C)C2` [Maytansine], the “concentration that inhibits C.E.M. line (as low as)” value in test [1] was 10^−7 µg/mL. Turning to `COC(=O)Nc1nc2ccc(C(=O)c3cccs3)cc2[nH]1` [Nocodazole], the “relative activity of tubulin polymerization decreased” value with tubulin (100 μM Nocodazole stock, 37° C., 405 nm) came out at 2.5 fold.

`CC(=O)O[C@H]1C(=O)[C@@]2(C)[C@H]([C@H](OC(=O)c3ccccc3)[C@]3(O)C[C@H](OC(=O)[C@H](O)[C@@H](NC(=O)c4ccccc4)c4ccccc4)C(C)=C1C3(C)C)[C@]1(OC(C)=O)CO[C@@H]1C[C@@H]2O` [Paclitaxel]: the “relative activity of tubulin polymerization enhanced” value with tubulin (100 μM Paclitaxel stock, 37° C., 405 nm) was “about 3 fold”.
